In PMC11672125 (JACS Au, 2024):

Target: Brd4 (Homo sapiens, UniProt O60885)
Assay: Brd4 degradation by immunoblotting in PC-3 cells
Format: cell-based
Settings: siRNA-VHL 50 nM 72 h, then 30 nM SHD913 for 4 h

Substance: siVHL: siRNA against VHL; sense sequence 5′- GGCUCAACUUCGACGGCGA −3′ (antisense UCGCCGUCGAAGUUGAGCC; chemistry not given here)
- effect of siVHL pretreatment on SHD913-mediated Brd4 degradation: reversed SHD913-mediated Brd4 degradation
